# Reference: patent US20190359653A1, “SELECTIVE PEPTIDE INHIBITORS OF FRIZZLED” (Genentech, Inc., priority 2016, published 2019)
# Tested on: Wnt3a-mediated β-catenin signaling in HEK293-TB cells
# Format: cell-based
sequence,measurement,value
LPSDDAEFWCHVMY [dFz7-21-L6A],reduction in cellular potency,~800 fold
